Laboratory results taken from ChEMBL document CHEMBL2424584, “Novel cross-link breaker based on zwitterion structure: synthesis, structure and druggability studies” (Eur J Med Chem, 2013).
Activity calls are given as the source filed them. The calls are words filed in the database; no cut-off is given here.

Organism: Rattus norvegicus
Assay: Reversible of increased arterial stiffness associated with diabetes in rat
Type: functional, organism-based

Question: `Cc1csc[n+]1CC(=O)[O-]` was tested. Which Activity did it give?
Answer: Active
